{
  "source": "paper PMC6199309",
  "about": "“A therapeutic approach to pantothenate kinase associated neurodegeneration” (Nature Communications, 2018)",
  "key": {"[1]": {"target": "T1, ABL1(T315I)-nonphosphorylated (Homo sapiens, UniProt P00519, T315I)", "T1 construct": "purchased DiscoverX KINOMEscan", "assay": "KINOMEscan", "assay_type": "binding", "details": "read-out: %Ctrl @ 10000nM"}, "AKT1": {"target": "T2, AKT1 (Homo sapiens, UniProt P31749)", "T2 construct": "purchased DiscoverX KINOMEscan", "assay": "KINOMEscan", "assay_type": "binding", "details": "read-out: %Ctrl @ 10000nM"}, "CDC2L5": {"target": "T3, CDC2L5 (Homo sapiens, UniProt Q14004)", "T3 construct": "purchased DiscoverX KINOMEscan", "assay": "KINOMEscan", "assay_type": "binding", "details": "read-out: %Ctrl @ 10000nM"}, "EPHA2": {"target": "T4, EPHA2 (Homo sapiens, UniProt P29317)", "T4 construct": "purchased DiscoverX KINOMEscan", "T4 sequence (P29317 24-976)": "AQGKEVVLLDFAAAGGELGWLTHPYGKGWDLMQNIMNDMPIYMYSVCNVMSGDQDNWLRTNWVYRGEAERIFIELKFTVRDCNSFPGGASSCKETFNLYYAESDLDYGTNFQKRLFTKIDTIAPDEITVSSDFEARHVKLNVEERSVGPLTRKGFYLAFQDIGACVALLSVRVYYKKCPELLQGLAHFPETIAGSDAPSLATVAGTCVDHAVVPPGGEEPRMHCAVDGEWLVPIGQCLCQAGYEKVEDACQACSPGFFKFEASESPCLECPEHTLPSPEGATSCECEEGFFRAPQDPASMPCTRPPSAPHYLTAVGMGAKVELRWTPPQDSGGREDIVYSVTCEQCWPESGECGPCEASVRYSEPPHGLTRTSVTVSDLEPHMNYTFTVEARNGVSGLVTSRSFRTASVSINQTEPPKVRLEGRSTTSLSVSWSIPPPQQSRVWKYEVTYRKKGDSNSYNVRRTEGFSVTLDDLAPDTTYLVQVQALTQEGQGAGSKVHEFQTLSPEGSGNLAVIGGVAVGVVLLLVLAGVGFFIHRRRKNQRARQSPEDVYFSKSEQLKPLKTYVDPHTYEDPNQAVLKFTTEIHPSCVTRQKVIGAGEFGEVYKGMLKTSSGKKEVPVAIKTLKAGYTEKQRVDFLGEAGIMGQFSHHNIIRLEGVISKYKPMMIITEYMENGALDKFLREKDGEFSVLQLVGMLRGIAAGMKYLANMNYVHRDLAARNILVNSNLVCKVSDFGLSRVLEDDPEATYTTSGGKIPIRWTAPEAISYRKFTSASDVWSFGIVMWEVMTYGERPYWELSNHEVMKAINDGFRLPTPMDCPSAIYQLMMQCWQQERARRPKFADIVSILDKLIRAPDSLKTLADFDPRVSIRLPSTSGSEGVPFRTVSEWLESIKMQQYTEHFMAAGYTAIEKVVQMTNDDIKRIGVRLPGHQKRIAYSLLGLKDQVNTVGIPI", "assay": "KINOMEscan", "assay_type": "binding", "details": "read-out: %Ctrl @ 10000nM"}, "ERBB4": {"target": "T5, ERBB4 (Homo sapiens, UniProt Q15303)", "T5 construct": "purchased DiscoverX KINOMEscan", "assay": "KINOMEscan", "assay_type": "binding", "details": "read-out: %Ctrl @ 10000nM"}, "LATS2": {"target": "T6, LATS2 (Homo sapiens, UniProt Q9NRM7)", "T6 construct": "purchased DiscoverX KINOMEscan", "assay": "KINOMEscan", "assay_type": "binding", "details": "read-out: %Ctrl @ 10000nM"}, "MAK": {"target": "T7, MAK (Homo sapiens, UniProt P20794)", "T7 construct": "purchased DiscoverX KINOMEscan", "assay": "KINOMEscan", "assay_type": "binding", "details": "read-out: %Ctrl @ 10000nM"}, "MAP3K1": {"target": "T8, MAP3K1 (Homo sapiens, UniProt Q13233)", "T8 construct": "purchased DiscoverX KINOMEscan", "assay": "KINOMEscan", "assay_type": "binding", "details": "read-out: %Ctrl @ 10000nM"}, "MRCKB": {"target": "T9, MRCKB (Homo sapiens, UniProt Q9Y5S2)", "T9 construct": "purchased DiscoverX KINOMEscan", "assay": "KINOMEscan", "assay_type": "binding", "details": "read-out: %Ctrl @ 10000nM"}, "MYO3A": {"target": "T10, MYO3A (Homo sapiens, UniProt Q8NEV4)", "T10 construct": "purchased DiscoverX KINOMEscan", "assay": "KINOMEscan", "assay_type": "binding", "details": "read-out: %Ctrl @ 10000nM"}, "NIM1": {"target": "T11, NIM1 (Homo sapiens, UniProt Q8IY84)", "T11 construct": "purchased DiscoverX KINOMEscan", "assay": "KINOMEscan", "assay_type": "binding", "details": "read-out: %Ctrl @ 10000nM"}, "PFTAIRE2": {"target": "T12, PFTAIRE2 (Homo sapiens, UniProt Q96Q40)", "T12 construct": "purchased DiscoverX KINOMEscan", "assay": "KINOMEscan", "assay_type": "binding", "details": "read-out: %Ctrl @ 10000nM"}, "PIP5K1A": {"target": "T13, PIP5K1A (Homo sapiens, UniProt Q99755)", "T13 construct": "purchased DiscoverX KINOMEscan", "assay": "KINOMEscan", "assay_type": "binding", "details": "read-out: %Ctrl @ 10000nM"}, "PIP5K2B": {"target": "T14, PIP5K2B (Homo sapiens, UniProt P78356)", "T14 construct": "purchased DiscoverX KINOMEscan", "assay": "KINOMEscan", "assay_type": "binding", "details": "read-out: %Ctrl @ 10000nM"}, "PRKCH": {"target": "T15, PRKCH (Homo sapiens, UniProt P24723)", "T15 construct": "purchased DiscoverX KINOMEscan", "assay": "KINOMEscan", "assay_type": "binding", "details": "read-out: %Ctrl @ 10000nM"}, "RET(V804L)": {"target": "T16, RET(V804L) (Homo sapiens, UniProt P07949, V804L)", "T16 construct": "purchased DiscoverX KINOMEscan", "assay": "KINOMEscan", "assay_type": "binding", "details": "read-out: %Ctrl @ 10000nM"}, "S6K1": {"target": "T17, S6K1 (Homo sapiens, UniProt P23443)", "T17 construct": "purchased DiscoverX KINOMEscan", "T17 sequence (P23443 whole entry)": "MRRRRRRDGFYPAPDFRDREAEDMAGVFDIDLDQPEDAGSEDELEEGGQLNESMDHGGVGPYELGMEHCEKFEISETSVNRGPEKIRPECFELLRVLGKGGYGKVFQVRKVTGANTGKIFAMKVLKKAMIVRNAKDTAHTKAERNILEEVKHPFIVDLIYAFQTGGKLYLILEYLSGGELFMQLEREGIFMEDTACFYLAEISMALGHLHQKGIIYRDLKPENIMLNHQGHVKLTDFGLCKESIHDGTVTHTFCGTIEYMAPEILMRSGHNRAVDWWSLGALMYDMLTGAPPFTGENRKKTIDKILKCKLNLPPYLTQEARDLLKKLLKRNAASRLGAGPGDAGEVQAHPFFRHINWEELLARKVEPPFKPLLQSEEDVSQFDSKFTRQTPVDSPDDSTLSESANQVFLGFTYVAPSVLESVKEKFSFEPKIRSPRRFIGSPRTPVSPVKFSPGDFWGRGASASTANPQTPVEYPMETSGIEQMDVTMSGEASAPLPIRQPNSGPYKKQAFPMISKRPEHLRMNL", "assay": "KINOMEscan", "assay_type": "binding", "details": "read-out: %Ctrl @ 10000nM"}, "SNARK": {"target": "T18, SNARK (Homo sapiens, UniProt Q9H093)", "T18 construct": "purchased DiscoverX KINOMEscan", "assay": "KINOMEscan", "assay_type": "binding", "details": "read-out: %Ctrl @ 10000nM"}, "STK36": {"target": "T19, STK36 (Homo sapiens, UniProt Q9NRP7)", "T19 construct": "purchased DiscoverX KINOMEscan", "T19 sequence (Q9NRP7 whole entry)": "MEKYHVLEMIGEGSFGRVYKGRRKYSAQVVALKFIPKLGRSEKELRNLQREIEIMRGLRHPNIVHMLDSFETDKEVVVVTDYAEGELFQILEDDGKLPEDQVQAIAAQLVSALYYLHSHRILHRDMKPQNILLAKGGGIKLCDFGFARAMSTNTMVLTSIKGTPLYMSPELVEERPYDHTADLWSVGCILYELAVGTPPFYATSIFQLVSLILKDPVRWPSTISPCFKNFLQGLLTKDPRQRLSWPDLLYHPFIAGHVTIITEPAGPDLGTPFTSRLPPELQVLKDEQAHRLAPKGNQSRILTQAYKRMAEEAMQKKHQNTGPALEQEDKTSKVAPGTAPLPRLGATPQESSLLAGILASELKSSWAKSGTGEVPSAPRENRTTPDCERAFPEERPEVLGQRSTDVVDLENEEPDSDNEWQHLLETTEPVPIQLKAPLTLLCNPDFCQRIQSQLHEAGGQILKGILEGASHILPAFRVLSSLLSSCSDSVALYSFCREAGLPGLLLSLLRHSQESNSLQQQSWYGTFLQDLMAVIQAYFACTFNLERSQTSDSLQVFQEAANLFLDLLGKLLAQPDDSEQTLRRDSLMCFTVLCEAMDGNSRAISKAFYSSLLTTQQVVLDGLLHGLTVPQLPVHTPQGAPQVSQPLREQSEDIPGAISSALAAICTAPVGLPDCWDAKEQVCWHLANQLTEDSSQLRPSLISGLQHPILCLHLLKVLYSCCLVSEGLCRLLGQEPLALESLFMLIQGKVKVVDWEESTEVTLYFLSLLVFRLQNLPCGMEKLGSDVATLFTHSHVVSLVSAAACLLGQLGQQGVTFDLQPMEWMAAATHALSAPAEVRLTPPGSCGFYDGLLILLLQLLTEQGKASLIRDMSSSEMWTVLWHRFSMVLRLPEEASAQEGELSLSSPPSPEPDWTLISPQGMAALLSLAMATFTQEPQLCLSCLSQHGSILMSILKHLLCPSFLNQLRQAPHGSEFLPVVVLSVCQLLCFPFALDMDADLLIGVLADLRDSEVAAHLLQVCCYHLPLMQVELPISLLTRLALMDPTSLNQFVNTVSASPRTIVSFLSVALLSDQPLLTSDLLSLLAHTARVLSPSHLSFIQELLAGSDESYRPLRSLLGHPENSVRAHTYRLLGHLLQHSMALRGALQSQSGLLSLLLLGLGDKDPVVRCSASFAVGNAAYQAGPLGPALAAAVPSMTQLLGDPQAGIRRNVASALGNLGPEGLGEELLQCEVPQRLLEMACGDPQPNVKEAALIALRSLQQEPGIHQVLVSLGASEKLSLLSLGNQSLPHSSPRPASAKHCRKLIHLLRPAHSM", "assay": "KINOMEscan", "assay_type": "binding", "details": "read-out: %Ctrl @ 10000nM"}, "TAOK1": {"target": "T20, TAOK1 (Homo sapiens, UniProt Q7L7X3)", "T20 construct": "purchased DiscoverX KINOMEscan", "assay": "KINOMEscan", "assay_type": "binding", "details": "read-out: %Ctrl @ 10000nM"}, "TNIK": {"target": "T21, TNIK (Homo sapiens, UniProt Q9UKE5)", "T21 construct": "purchased DiscoverX KINOMEscan", "T21 sequence (Q9UKE5 whole entry)": "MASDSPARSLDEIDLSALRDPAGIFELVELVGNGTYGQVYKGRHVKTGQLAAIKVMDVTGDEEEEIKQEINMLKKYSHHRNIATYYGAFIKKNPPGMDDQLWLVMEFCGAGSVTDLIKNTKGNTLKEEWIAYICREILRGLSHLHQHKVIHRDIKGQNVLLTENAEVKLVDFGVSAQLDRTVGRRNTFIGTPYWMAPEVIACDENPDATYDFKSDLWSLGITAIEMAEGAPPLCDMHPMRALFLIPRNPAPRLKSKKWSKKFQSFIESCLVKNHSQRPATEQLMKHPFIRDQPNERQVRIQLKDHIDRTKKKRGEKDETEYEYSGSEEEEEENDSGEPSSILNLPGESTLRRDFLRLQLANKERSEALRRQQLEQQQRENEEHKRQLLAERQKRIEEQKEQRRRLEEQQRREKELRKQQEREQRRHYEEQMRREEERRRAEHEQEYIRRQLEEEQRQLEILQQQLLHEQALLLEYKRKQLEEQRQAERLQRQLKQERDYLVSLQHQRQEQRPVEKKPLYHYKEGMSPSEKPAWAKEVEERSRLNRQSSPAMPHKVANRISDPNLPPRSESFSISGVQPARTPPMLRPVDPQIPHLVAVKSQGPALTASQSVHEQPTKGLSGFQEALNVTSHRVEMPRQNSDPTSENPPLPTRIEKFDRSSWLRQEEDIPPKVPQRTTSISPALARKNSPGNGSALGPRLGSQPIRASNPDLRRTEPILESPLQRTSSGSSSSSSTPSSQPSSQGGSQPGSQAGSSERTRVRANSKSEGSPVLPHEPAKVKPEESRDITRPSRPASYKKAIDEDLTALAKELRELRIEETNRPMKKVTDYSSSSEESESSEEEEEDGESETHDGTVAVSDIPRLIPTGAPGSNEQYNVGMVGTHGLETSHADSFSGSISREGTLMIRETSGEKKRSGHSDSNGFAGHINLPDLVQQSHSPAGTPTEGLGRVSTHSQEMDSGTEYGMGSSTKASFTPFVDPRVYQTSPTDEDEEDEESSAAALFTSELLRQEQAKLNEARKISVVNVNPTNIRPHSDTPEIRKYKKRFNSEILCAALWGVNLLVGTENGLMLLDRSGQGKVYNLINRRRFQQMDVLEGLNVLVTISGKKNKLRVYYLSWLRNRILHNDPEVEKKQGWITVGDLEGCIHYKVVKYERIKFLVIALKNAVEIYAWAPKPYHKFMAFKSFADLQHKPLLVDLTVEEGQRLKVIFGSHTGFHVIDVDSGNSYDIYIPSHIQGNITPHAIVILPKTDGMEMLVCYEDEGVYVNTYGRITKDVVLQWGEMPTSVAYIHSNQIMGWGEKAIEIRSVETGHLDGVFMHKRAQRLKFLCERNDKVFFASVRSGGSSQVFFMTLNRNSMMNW", "assay": "KINOMEscan", "assay_type": "binding", "details": "read-out: %Ctrl @ 10000nM"}, "YANK2": {"target": "T22, YANK2 (Homo sapiens, UniProt Q9NY57)", "T22 construct": "DNA label for qPCR (T7 phage fusion or DNA tag); purchased DiscoverX scanMAX; host or cells: E. coli BL21-derived (T7 phage) or HEK-293", "T22 sequence (Q9NY57 whole entry, the tested form may be a part)": "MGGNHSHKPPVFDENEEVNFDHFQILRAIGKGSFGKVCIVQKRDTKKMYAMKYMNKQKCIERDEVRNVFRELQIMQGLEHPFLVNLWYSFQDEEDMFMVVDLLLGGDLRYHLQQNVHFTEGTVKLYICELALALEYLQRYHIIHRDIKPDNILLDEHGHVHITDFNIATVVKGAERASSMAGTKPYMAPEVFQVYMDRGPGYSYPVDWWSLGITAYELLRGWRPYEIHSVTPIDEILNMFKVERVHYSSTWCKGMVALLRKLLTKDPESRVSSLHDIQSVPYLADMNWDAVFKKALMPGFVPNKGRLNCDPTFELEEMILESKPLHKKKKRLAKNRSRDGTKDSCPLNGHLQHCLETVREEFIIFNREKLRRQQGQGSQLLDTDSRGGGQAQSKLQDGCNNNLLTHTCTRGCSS", "assay": "KINOMEscan", "assay_type": "binding", "details": "read-out: %Ctrl @ 10000nM"}, "Plasma stability": {"assay": "Plasma stability", "assay_type": "in vitro ADME", "details": "rat, read-out: Plasma Stability T1/2 (converted)"}, "C3A cells": {"test_system": "C3A cells", "assay": "Cell growth and macromolecular synthesis", "assay_type": "cell-based, human", "details": "10 μM", "experimental": "For quantifying protein, DNA and lipid synthesis, C3A cells were first seeded at 2 × 10^6 in 60 mm-dishes and grown overnight in maintenance medium. Cells were washed once with phosphate buffered saline (PBS) and 2 ml of labeling medium plus radiochemical was added to start the 24 h incubation. […]. […] The labeling medium contained 0.1% dimethylsulfoxide (DMSO; control) or 10 μM compound in 0.1% DMSO. Cells were harvested, washed once with PBS and harvested either by trypsinization and vacuum filtration through 0.45 micron discs (Millipore, HAWP02500) for protein and DNA determinations, or by scraping and extraction in 100 μl H2O + 240 μl methanol/acetic acid 98:2 + 100 μl CHCl3 for lipid determination. Filters were washed three times with PBS, air dried and counted with a Liquid Scintillation Analyzer. Radioactivity was normalized to cell numbers and viability was >95%. Cellular lipid emulsions were separated by centrifugation and the lower phases were quantified by liquid scintillation counting and normalized to cell numbers.\n(b) Pathway labeling of C3A cells treated with either DMSO or DMSO […]\n[…]. labeled amino acid mixture, DNA synthesis was determined by measuring the incorporation of [3H]thymidine, and lipid synthesis was determined by labeling with [U-14C]glucose and measuring the incorporation of label into the lipid fraction as described in Methods. […]"}, "tissue CoA": {"test_system": "tissue CoA", "assay": "Mouse efficacy testing: tissue CoA levels", "assay_type": "in vivo", "experimental": "C57Bl6/J mice (8-week-old) were purchased from Jackson Laboratory and were fed either a regular diet (autoclavable rodent breeder diet, Labdiet) or an isocaloric, pantothenic acid-supplemented diet (1000 ppm) for 2 weeks prior to the experiment. The mice were maintained at room temperature 72° ± 2 °F, humidity 50 ± 10% and a 14 h light /10 h dark cycle with the dark cycle starting at 18:00 h. Water was supplied ad libitum. The mice were randomized into the treatment arms to achieve a normal weight distribution. […] The mice were euthanized and tissues harvested 4 h after the last dose. The tissue samples were used for total CoA, pantothenate and pantazine determinations. Blood was collected from euthanized animals, plasma or serum was prepared and stored frozen until analysis. Organs, including liver, forebrain, and hindbrain were quickly excised from euthanized animals and immediately flash frozen in liquid N2 or immersed in RNAlater® (Qiagen) overnight prior to freezing. Forebrain and hindbrain regions were identified. Total CoA was determined using 20–50 mg of tissue (liver, forebrain or hindbrain) homogenized in 2 ml of 1 mM KOH. The pH was adjusted to 12.0 with 0.25 M KOH, and incubated at 55 °C for 2 h[23]. The pH of the sample was adjusted to 8.0, and the samples were derivatized with monobromobimane (mBBr) and analyzed by HPLC equipped with a fluorescence detector."}},
  "note": "“Also recorded” adds a separate entry of the source.",
  "data": [
    {"smiles": "CC(C)c1ccc(CC(=O)N2CCN(c3ccc(C#N)nn3)CC2)cc1", "note": "[PZ-2891, 6-(4-(2-(4-isopropylphenyl)acetyl)piperazin-1-yl)pyridazine-3-carbonitrile]", "values": [
      {"measurement": "remaining binding at 10 µM", "setting": "[1]", "result": 63, "unit": "%"},
      {"measurement": "remaining binding at 10 µM", "setting": "AKT1", "result": 98, "unit": "%"},
      {"measurement": "remaining binding at 10 µM", "setting": "CDC2L5", "result": 81, "unit": "%"},
      {"measurement": "remaining binding at 10 µM", "setting": "EPHA2", "result": 100, "unit": "%"},
      {"measurement": "remaining binding at 10 µM", "setting": "ERBB4", "result": 100, "unit": "%"},
      {"measurement": "remaining binding at 10 µM", "setting": "LATS2", "result": 82, "unit": "%"},
      {"measurement": "remaining binding at 10 µM", "setting": "MAK", "result": 69, "unit": "%"},
      {"measurement": "remaining binding at 10 µM", "setting": "MAP3K1", "result": 89, "unit": "%"},
      {"measurement": "remaining binding at 10 µM", "setting": "MRCKB", "result": 100, "unit": "%"},
      {"measurement": "remaining binding at 10 µM", "setting": "MYO3A", "result": 68, "unit": "%"},
      {"measurement": "remaining binding at 10 µM", "setting": "NIM1", "result": 83, "unit": "%"},
      {"measurement": "remaining binding at 10 µM", "setting": "PFTAIRE2", "result": 99, "unit": "%"},
      {"measurement": "remaining binding at 10 µM", "setting": "PIP5K1A", "result": 86, "unit": "%"},
      {"measurement": "remaining binding at 10 µM", "setting": "PIP5K2B", "result": 88, "unit": "%"},
      {"measurement": "remaining binding at 10 µM", "setting": "PRKCH", "result": 92, "unit": "%"},
      {"measurement": "remaining binding at 10 µM", "setting": "RET(V804L)", "result": 96, "unit": "%"},
      {"measurement": "remaining binding at 10 µM", "setting": "S6K1", "result": 96, "unit": "%"},
      {"measurement": "remaining binding at 10 µM", "setting": "SNARK", "result": 69, "unit": "%"},
      {"measurement": "remaining binding at 10 µM", "setting": "STK36", "result": 84, "unit": "%"},
      {"measurement": "remaining binding at 10 µM", "setting": "TAOK1", "result": 93, "unit": "%"},
      {"measurement": "remaining binding at 10 µM", "setting": "TNIK", "result": 91, "unit": "%"},
      {"measurement": "remaining binding at 10 µM", "setting": "YANK2", "result": 100, "unit": "%"},
      {"measurement": "half-life", "setting": "Plasma stability", "result": "> 50", "unit": "h"},
      {"measurement": "cell viability (cell growth, synthesis of DNA, protein and lipid)", "setting": "C3A cells", "result": "no differences between control and PZ-2891; also recorded: did not impact cell viability"},
      {"measurement": "increase in total liver CoA", "setting": "tissue CoA; 30 mg/kg PZ-2891 alone, oral gavage, 5 doses at 12 h intervals", "result": 50, "unit": "%"},
      {"measurement": "increase in liver CoA levels", "setting": "tissue CoA; 30 mg/kg PZ-2891 plus 200 mg/kg pantothenate, oral gavage, 5 doses at 12 h intervals", "result": 100, "unit": "%"},
      {"measurement": "muscle CoA levels", "setting": "tissue CoA; 112 ppm PZ-2891 in chow, 1 week", "result": "not elevated"},
      {"measurement": "CoA levels in tissues, 1 week chow", "setting": "tissue CoA; 112 ppm PZ-2891 in chow, 1000 ppm pantothenate, 1 week", "result": "elevated in liver, brain, and to a lesser extent, heart"},
      {"measurement": "total CoA in liver, forebrain and hindbrain", "setting": "tissue CoA; male and female mice, 5 oral doses every 12 h plus 100 mg/kg pantothenate", "result": "dose-dependent increase in total CoA"},
      {"measurement": "weights or behavior of treated animals", "setting": "tissue CoA; one-month treatment in diet", "result": "no difference in the weights or behavior"},
      {"measurement": "liver and brain CoA, 4 weeks diet", "setting": "tissue CoA; series of PZ-2891 doses in diet, 1000 ppm pantothenate, 4 weeks", "result": "significantly elevated"}
    ]}
  ]
}
